# Measured values: publication PMC4890880 (ACS infectious diseases, 2016)
# Read-outs that look alike come from different tables or passages of the source.
# How the values were obtained:
# [1] = biological target: QuantiLum Recombinant Luciferase (Photinus pyralis, UniProt P08659); experiment: Bioluminescence quantification of compound luciferase inhibition; settings: for Emax: read-out: LucInhib max inhibition
# [2] = test system: Plasmodium berghei (Pb-Luc) exoerythrocytic-stage parasites; experiment: microbe, parasite or virus in culture; settings: for inhibition at 10 µM: read-out: PbLuc max inhibition (%) @ 10 uM
# HepG2-A16-CD81EGFP cells [3] = experiment: cells; settings: Homo sapiens; for IC50: HepG2, read-out: Tox IC50; for inhibition at 50 µM: HepG2, read-out: Tox max inhibition (%) @ 50 uM; for inhibition at 10 µM: HepG2, read-out: Tox max inhibition (%) @ 10 uM
# HepG2-A16-CD81EGFP cells [4] = settings: human, 50 uM
# HepG2-A16-CD81EGFP cells [5] = experiment: cells; settings: Homo sapiens, HepG2, read-out: % inhibition
# [6] = read-out: Inhibition% @ 50 uM rep1
# [7] = read-out: Inhibition% @ 50 uM rep2
# [8] = read-out: PbLuc IC50, dose response, unit inferred
# [9] = read-out: PbLuc max inhibition (%) @ 50 uM
# [10] = HepG2, read-out: HepG2 Tox% @ 50 uM rep1
# [11] = read-out: PbLuc IC50, dose response, 1/3 dilutions, max conc. 10 or 50 uM, unit inferred
# [12] = HepG2, read-out: HepG2 Tox% @ 50 uM rep2
# QuantiLum Recombinant Luciferase, sequence (P08659 whole entry): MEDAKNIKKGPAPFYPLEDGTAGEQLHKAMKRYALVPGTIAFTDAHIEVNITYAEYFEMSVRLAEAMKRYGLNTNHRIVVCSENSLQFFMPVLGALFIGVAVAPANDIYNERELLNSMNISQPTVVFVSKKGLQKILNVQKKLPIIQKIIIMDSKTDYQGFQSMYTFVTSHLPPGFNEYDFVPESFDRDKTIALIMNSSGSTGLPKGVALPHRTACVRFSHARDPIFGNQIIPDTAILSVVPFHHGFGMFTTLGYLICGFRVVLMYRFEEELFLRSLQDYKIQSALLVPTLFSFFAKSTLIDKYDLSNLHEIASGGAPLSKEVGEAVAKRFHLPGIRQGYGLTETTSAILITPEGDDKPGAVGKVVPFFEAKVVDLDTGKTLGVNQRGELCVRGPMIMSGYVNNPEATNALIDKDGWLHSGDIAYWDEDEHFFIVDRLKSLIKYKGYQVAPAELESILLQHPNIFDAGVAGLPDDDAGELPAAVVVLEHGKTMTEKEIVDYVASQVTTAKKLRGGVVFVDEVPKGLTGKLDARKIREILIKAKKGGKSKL
SMILES,IC50 [1],Emax [1],"inhibition at 50 µM [2, 6]","inhibition at 50 µM [2, 7]","IC50 [2, 8]","inhibition at 50 µM [2, 9]",cytotoxicity at 50 µM (HepG2-A16-CD81EGFP cells [3]; [10]),IC50 (HepG2-A16-CD81EGFP cells [3]),inhibition at 50 µM (HepG2-A16-CD81EGFP cells [3]),"IC50 [2, 11]",inhibition at 10 µM [2],cytotoxicity at 50 µM (HepG2-A16-CD81EGFP cells [3]; [12]),inhibition at 10 µM (HepG2-A16-CD81EGFP cells [3]),HepG2 Tox% @ 50 uM rep2 (HepG2-A16-CD81EGFP cells [4]),inhibition at 50 µM (HepG2-A16-CD81EGFP cells [5]),HepG2 Tox% @ 50 uM rep1 (HepG2-A16-CD81EGFP cells [4])
COc1ccc(-c2nc(N3CCN(C(=O)C4CCCCC4)CC3)c3c4c(sc3n2)CCCC4)cc1 [MMV396594],> 50 µM,44%,98%,98%,39.9 µM,69%,2.59%,> 50 µM,37%,–,–,–,–,–,–,–
CCCCc1c(C)nc2c(OC)cccc2c1O [MMV006820],> 20 µM,41%,99%,102%,–,–,-15%,> 10 µM,–,0.162 µM,110%,-12%,15%,–,–,–
O=C(NCc1ccco1)C1CCN(S(=O)(=O)c2ccc(Cl)cc2)CC1 [MMV006188],> 50 µM,22%,102%,102%,–,106%,22%,> 50 µM,28%,0.707 µM,–,28%,–,–,–,–
CCCc1c(C)nc2ccc(Br)cc2c1O [MMV666095],> 50 µM,25%,102%,103%,–,106%,-21%,> 50 µM,-6%,0.794 µM,–,–,–,–,–,–
O=C(Nc1ccc(N2CCN(Cc3ccccc3)CC2)cc1)c1cccs1 [MMV019670],> 20 µM,14%,102%,102%,–,–,-7.52%,> 10 µM,–,0.0944 µM,110%,-9%,32%,–,–,–
CCN(CC)c1ccc(NC(=O)c2cccs2)cc1 [MMV009060],33.1 µM,80%,101%,102%,–,104%,7%,> 50 µM,6%,1.76 µM,–,16%,–,–,–,–
CC(=O)Nc1nnc(SCc2c(C)cc(C(C)(C)C)cc2C)s1 [MMV020700],> 50 µM,34%,103%,105%,–,103%,0.191%,> 50 µM,10%,2.29 µM,–,8%,–,–,–,–
CCCCOc1ccc(C(=O)Nc2cc(C)on2)cc1 [MMV007906],> 20 µM,34%,98%,98%,–,–,-15%,> 10 µM,–,0.907 µM,97%,-10%,7.53%,–,–,–
COc1cc(CNCCc2ccc(Cl)cc2)cc(OC)c1O [MMV128432],> 50 µM,39%,90%,93%,> 50 µM,73%,-13%,> 50 µM,33%,–,–,–,–,–,–,–
O=C(c1ccccc1F)N(Cc1ccc(Cl)cc1)c1ccccn1 [MMV665899],> 50 µM,40%,100%,98%,–,94%,20%,> 50 µM,6%,9.54 µM,–,28%,–,–,–,–
CCOC(=O)c1cn(CC)c2cc(N3CCCCC3)c(F)cc2c1=O [MMV665827],> 20 µM,24%,102%,105%,–,–,-12%,> 10 µM,–,0.0743 µM,99%,-7%,15%,–,–,–
CCOc1ccc(Nc2ccnc3cc(Cl)ccc23)cc1 [MMV007285],> 50 µM,47%,88%,91%,–,100%,16%,> 50 µM,14%,1.65 µM,–,–,–,–,–,–
Cc1ccc(-c2cc3c(SCC(=O)Nc4cc(C(F)(F)F)ccc4Cl)nccn3n2)cc1 [MMV396680],> 50 µM,21%,92%,85%,–,95%,-4%,> 50 µM,11%,8.63 µM,–,2.13%,–,–,–,–
CCOC(=O)c1cnc2c(C)cccc2c1Nc1ccc(C(C)=O)cc1 [MMV006250],> 50 µM,27%,88%,91%,28.2 µM,84%,18%,> 50 µM,0%,–,–,–,–,–,–,–
COc1ccc(N2CCN(C(CNC(=O)C3CCCCC3)c3ccc4c(c3)OCO4)CC2)cc1 (centres unmarked) [MMV019662],> 50 µM,38%,89%,94%,> 50 µM,49%,18%,> 50 µM,19%,–,–,28%,–,–,–,–
CN1CCN(c2nc(Nc3ccc(O)cc3)nc3ccccc23)CC1 [MMV000986],21.9 µM,69%,86%,90%,–,94%,25%,> 50 µM,7%,20.4 µM,–,–,–,–,–,–
CCOC(=O)c1cnc2c(CC)cccc2c1O [MMV498479],> 50 µM,19%,103%,103%,–,106%,-10%,> 50 µM,1%,1.67 µM,–,–,–,–,–,–
COCCNC(=O)c1ccc(OC2CCN(Cc3ccc(F)c(F)c3)CC2)c(Cl)c1 [MMV666072],–,–,100%,102%,–,–,–,–,–,–,–,–,–,97%,90.7%,–
COc1ccc(N2CCN(C(CNC(=O)CC(C)(C)C)c3ccc4c(c3)OCO4)CC2)cc1 (centres unmarked) [MMV665908],–,–,61%,66%,–,–,–,–,–,–,–,–,–,–,-9.68%,-10%
COc1cccc(Nc2nc(NCCO)c3ccccc3n2)c1 [MMV011944],–,–,103%,106%,–,–,–,–,–,–,–,–,–,101%,99.7%,100%
CCC(=O)Nc1nnc(Cc2ccc(OC)c(OC)c2)s1 [MMV020942],–,–,-19%,-37%,–,–,–,–,–,–,–,–,–,–,-25.5%,-26%
O=C(Nc1cccc(-c2nc3ccccc3[nH]2)c1)c1cccc(NC(=O)c2ccco2)c1 [MMV665883],–,–,101%,102%,–,–,–,–,–,–,–,–,–,99%,97.2%,–
Oc1c(C(Nc2ccccn2)c2cccc(Oc3ccccc3)c2)ccc2cccnc12 (centres unmarked) [MMV665814],–,–,-33%,-6%,–,–,–,–,–,–,–,–,–,–,-17.3%,-17%
